The source of these data is patent US8933102B2, “Pyrrolidine derived β3 adrenergic receptor agonists” (Merck Sharp & Dohme Corp., priority 2010, dated 2015).

In the test the target is T1, human β3 adrenergic receptor (Homo sapiens, UniProt P13945).
T1 construct: expressed in transfected cells; host or cells: Chinese hamster ovary (CHO) cells, stably transfected
In words: Beta-3 agonist in vitro functional assay (cAMP production, LANCE, CHO cells stably transfected with cloned β3 receptor). The class given is cell-based. As to conditions: cAMP production in CHO cells expressing human β3 AR. On the procedure: Functional Assay: cAMP production in response to ligand is measured according to Barton, et al. (1991, Agonist-induced desensitization of D2 dopamine receptors in human Y-79 retinoblastoma cells. Mol. Pharmacol. […]) modified as follows. cAMP production is measured using a homogenous time-resolved fluorescence resonance energy transfer immunoassay (LANCE™, Perkin Elmer) according to the manufacture's instructions. Chinese hamster ovary (CHO) cells, stably transfected with the cloned β-adrenergic receptor (β1, β2 or β3) are harvested after 3 days of subculturing. Harvesting of cells is done with Enzyme-free Dissociation Media (Specialty Media). Cells are then counted and resuspended in assay buffer (Hank's Balanced salt solution supplemented with 5 mM HEPES, […]) containing a phosphodiesterase inhibitor (IBMX, 0.6 mM). The reaction is initiated by mixing 6,000 cells in 6 μL with 6 μL Alexa Fluor labeled cAMP antibody (LANCE™ kit) which is then added to an assay well containing 12 μL of compound (diluted in assay buffer to 2× final concentration). The reaction proceeds for 30 minutes at RT and is terminated by the addition of 24 ul detection buffer (LANCE™ kit). The assay plate is then incubated for 1 h at RT and time-resolved fluorescence measured on a Perkin Elmer Envision reader or equivalent. The unknown cAMP level is determined by comparing fluorescence levels to a cAMP standard curve.
The non-selective, full agonist 13-adrenergic ligand isoproterenol is used at all three receptors to determine maximal stimulation. The human β3 adrenergic receptor (AR) selective ligand (S)—N-[4-[2-[[2-hydroxy-3-(4-hydroxyphenoxy)propyl]amino]ethyl]-phenyl]-4-iodobenzenesulfonamide is used as a control in all assays. Isoproterenol is titrated at a final concentration in the assay of 10^-10 M to 10-5 and the selective ligand (S)—N-[4-[2-[[2-hydroxy-3-(4-hydroxyphenoxy)propyl]amino]ethyl]phenyl]-4-iodobenzenesulfonamide is titrated at the β3 receptor at concentration of 10^-10 M to 10^-5 M. Unknown ligands are titrated at all 3 β-adrenergic receptor subtypes at a final concentration in the assay of 10^-10 M to 10^-5 M to determine the EC50. The EC50 is defined as the concentration of compound that gives 50% activation of its own maximum. Data are analyzed using Microsoft Excel and Graphpad Prism or an internally developed data analysis software package.
Background: Changes in cAMP serve as a functional read-out for many G protein-coupled receptors.

Setting [1] is: ranges as class symbols, read-out: Human β3 agonist functional activity.

Like-named read-outs stand apart in the source and are kept apart here. Where only a bound is given, the exact number is not on record here.

T1 sequence (P13945 whole entry): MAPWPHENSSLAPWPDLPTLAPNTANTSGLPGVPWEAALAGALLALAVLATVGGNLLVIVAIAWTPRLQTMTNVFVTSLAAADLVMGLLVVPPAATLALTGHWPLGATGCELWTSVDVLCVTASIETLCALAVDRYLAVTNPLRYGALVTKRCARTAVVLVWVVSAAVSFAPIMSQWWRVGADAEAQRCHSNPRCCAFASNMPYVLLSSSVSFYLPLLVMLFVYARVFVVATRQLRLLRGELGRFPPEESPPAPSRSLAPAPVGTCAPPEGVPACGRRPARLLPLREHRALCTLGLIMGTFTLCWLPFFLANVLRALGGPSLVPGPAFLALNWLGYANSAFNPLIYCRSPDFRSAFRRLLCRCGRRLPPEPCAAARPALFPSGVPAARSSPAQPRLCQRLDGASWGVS

In the case of `Cn1nnnc1C1CCN(C(=O)c2ccc(C[C@@H]3CC[C@H]([C@H](O)COc4ccccc4)N3)cc2)CC1` [Example 4], under setting [1], the EC50 is below 1 nM.

Turning to `O=C(c1ccc(C[C@@H]2CC[C@H]([C@H](O)COc3ccccc3)N2)cc1)N1CCN(Cc2ccncn2)CC1` [Example 6], the EC50 under setting [1] lay within 1 to 10 nM.

Consider `O=C(c1ccc(C[C@@H]2CC[C@H]([C@H](O)COc3ccccc3)N2)cc1)N1CCC(n2cccn2)CC1` [Example 1], for which the EC50 (read-out: human Beta-3 agonist functional activity) lay in the range of 1 to 10 nM.

As for `O=C(c1ccc(C[C@@H]2CC[C@H]([C@H](O)COc3ccccc3)N2)cc1)N1C[C@@H]2[C@H](C1)[C@H]2n1cnnn1` [Example 5], the EC50 under setting [1] was below 1 nM.

As to `O=C(c1ccc(C[C@@H]2CC[C@H]([C@H](O)COc3ccccc3)N2)cc1)N1CCC(n2ccnn2)CC1` [Example 3], the EC50 under setting [1] was in the range of 11 to 100 nM.

In the case of `O=C(c1ccc(C[C@@H]2CC[C@H]([C@H](O)COc3ccccc3)N2)cc1)N1CCC(n2nccn2)CC1` [Example 2], the EC50 under setting [1] was 1 to 10 nM.
